The numbers were not newly measured in patent US20060111442A1, “Use of methyl pyruvate to increase cellular energy production downstream of glycolysis for the PARP-1 ablation of HIV without necrotic cell death caused by continuous, chronic PARP-1 activation through the concomitant depletion of ATP and NAD” (priority 2004, published 2006), which cites them from elsewhere.

Like-named read-outs stand apart in the source and are kept apart here.

For data set [1], the system named is hepatic stellate cells (HSC). The note with it: 10 microm 15dPGJ(2); 0.1 approximately 10 microm BRL49653; WY14643 >100 microm, not <10 microm.
In data set [2] the test system is PDK4. The settings on record: control and high-fat-fed rats.
Data set [3] concerns PDK4. The note with it: feeding.
In data set [4] the test system is guinea-pig cerebral cortical synaptosomes.
In the next data set the test system is mGPDH-deficient islets. The note with it: both NADH shuttles halted.
Data set [5] deals with isolated beta-cell mitochondria. The note with it: with glutamate, vs pyruvate/glutamate.
The next data set addresses T1, K(ATP) channels (Homo sapiens, UniProt Q09428+Q14654).
T1 construct: endogenous in cells; host or cells: pancreatic beta-cells
The note with it: standard whole-cell configuration.

Data set [6] relates to Jurkat T-lymphocyte mitochondria.
Data set [7] relates to isolated rat pancreatic islets.
The subject of a further data set is Na(+)-K(+)-ATPase. The settings on record: 10 microM.
The conditions of data set [8]: 1 mmol.kg-1.d-1, 7 d; P<0.01.

T1 sequence (Q14654 whole entry): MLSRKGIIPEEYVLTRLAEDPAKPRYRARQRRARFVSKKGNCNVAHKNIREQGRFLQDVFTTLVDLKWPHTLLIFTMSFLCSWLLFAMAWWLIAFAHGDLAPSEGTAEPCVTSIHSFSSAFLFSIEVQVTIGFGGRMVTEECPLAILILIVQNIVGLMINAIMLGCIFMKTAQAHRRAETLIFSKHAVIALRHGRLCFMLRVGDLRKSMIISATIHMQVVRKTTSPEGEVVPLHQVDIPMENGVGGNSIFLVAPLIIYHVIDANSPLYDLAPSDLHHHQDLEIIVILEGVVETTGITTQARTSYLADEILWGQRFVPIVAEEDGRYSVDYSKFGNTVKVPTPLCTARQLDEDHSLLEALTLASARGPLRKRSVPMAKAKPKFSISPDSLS
T1 sequence (Q09428 whole entry): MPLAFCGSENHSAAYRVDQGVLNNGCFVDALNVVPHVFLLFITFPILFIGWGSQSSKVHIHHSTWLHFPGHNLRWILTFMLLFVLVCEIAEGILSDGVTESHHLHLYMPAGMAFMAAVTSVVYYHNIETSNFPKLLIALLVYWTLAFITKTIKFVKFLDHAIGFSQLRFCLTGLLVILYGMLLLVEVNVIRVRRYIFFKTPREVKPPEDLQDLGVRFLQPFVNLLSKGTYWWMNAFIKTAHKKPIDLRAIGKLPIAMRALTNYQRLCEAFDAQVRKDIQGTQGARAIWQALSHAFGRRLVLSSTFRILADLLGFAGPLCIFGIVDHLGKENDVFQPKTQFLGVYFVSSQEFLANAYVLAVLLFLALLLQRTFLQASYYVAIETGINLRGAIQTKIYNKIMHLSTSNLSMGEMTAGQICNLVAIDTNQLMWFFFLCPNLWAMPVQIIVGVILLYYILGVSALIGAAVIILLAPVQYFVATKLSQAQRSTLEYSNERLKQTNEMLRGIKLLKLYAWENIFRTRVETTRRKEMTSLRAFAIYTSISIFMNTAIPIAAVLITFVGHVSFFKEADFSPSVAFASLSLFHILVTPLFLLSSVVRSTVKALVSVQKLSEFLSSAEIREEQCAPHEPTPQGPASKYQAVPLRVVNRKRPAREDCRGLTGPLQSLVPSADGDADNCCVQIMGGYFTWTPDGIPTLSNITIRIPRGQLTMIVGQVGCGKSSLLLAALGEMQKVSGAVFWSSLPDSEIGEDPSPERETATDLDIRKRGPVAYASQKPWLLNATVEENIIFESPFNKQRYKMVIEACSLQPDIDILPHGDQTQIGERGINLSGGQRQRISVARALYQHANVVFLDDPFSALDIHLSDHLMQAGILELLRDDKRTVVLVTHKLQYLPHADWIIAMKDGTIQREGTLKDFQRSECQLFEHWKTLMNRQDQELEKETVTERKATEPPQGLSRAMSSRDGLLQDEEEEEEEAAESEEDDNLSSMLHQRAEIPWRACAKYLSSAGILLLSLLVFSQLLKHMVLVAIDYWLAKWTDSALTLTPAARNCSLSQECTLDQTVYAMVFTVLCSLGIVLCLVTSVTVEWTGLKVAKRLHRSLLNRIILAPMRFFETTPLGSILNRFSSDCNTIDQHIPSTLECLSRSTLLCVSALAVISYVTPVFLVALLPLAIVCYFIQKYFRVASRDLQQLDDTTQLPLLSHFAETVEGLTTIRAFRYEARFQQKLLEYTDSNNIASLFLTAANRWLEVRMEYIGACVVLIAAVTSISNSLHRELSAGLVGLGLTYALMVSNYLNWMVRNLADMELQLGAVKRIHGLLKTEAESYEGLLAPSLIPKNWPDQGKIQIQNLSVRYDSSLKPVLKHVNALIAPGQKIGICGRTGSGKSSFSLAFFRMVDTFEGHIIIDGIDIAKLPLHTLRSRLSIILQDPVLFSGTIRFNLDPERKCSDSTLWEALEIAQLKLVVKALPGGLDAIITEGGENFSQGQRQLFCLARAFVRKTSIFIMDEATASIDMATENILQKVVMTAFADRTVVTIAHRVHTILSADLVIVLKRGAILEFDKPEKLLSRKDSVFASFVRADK

On to `Cc1cccc(Nc2cc(Cl)nc(SCC(=O)O)n2)c1C` [WY14643], for which, in data set [1], the “HSC DNA and collagen synthesis” value is recorded as “inhibited”. Moreover, the “hepatic PDK4 protein” value in the data set on PDK4 [2] is reported as “significantly increased PDK4 protein”. For the same compound, in the data set on PDK4 [3], the “pyruvate dehydrogenase kinase activity, PDK4 protein, PDK4 mRNA in gastrocnemius muscle” value was “induced large increases”.
In the case of `NOCC(=O)O` [amino-oxyacetic acid], the “negative shift in the cytosolic NAD+/NADH redox potential” value in [4] is 26 mV. In addition, the glucose-induced insulin secretion result in the data set with mGPDH-deficient islets is “almost completely abrogated”.
As to `COC(=O)C(C)=O` [methyl pyruvate], in the data set with pancreatic beta-cells, the “NAD(P)H autofluorescence, ATP production, ATP/ADP ratio” value is “slightly decreased NAD(P)H autofluorescence and did not influence ATP production or the ATP/ADP ratio”; the “cytosolic free Ca(2+) concentration” value was “increased the cytosolic free Ca(2+) concentration after an initial decrease”; the “increase in insulin secretion relative to that induced by glucose” value is recorded as 6 fold. Also, in the data set with pancreatic beta-cells (0.5 mM glucose), the electrical activity result is on record as “elicited electrical activity”. In addition, the beta-cell membrane depolarization result in the data set with pancreatic beta-cells (5-20 mM) is listed as “depolarized the beta-cell in a concentration-dependent manner”. In addition, the “concentration of maximal effect on insulin secretion” value with pancreatic beta-cells (absence of glucose) is reported as 5 mM. Also, the insulin secretion entry in the data set on pancreatic beta-cells (absence of glucose, pyruvate 5-20 mM) is listed as “stimulated insulin secretion”. Further, the “insulin secretion and KATP block” value in the data set with pancreatic beta-cells (islets) is given as “block of KATP”. Moreover, the “ATP/ADP ratio in whole islets” value with pancreatic beta-cells (pyruvate 5 mM, MP 5 mM, glucose 20 mM) is on record as “no effect”. Besides, in data set [5], the ATP production entry is on record as “higher”. For the same compound, the “K(ATP) current” value at K(ATP) channels is listed as “inhibited the K(ATP) current”. In addition, the “cation current across the inner membrane” value in data set [6] was “directly inhibited”. Further, in [7], the mitochondrial alkalinization entry is “more marked mitochondrial alkalinization than pyruvate” and the “mitochondrial metabolism compared with pyruvate” value is given as “more efficient than pyruvate”. Besides, the insulin release result in data set [7] (D-glucose 16.7 mM and/or ester 20.0 mM) is “negative insulinotropic action”. Further, the insulin release entry in data set [7] (D-glucose 2.8 to 8.3 mM, ester not exceeding 1 0.0 mM) is recorded as “positive insulinotropic action”. The “NADH and NADPH response” value in the data set with pancreatic islets was “stimulated a robust NADH and NADPH response”.
As to `CCCCCCCC(=O)O` [octanoate], the “adverse energetic effects of malate-aspartate shuttle inhibition” value with porcine carotid arteries is reported as “normalized”.
As for `C[C@@H]1O[C@@H](O[C@H]2C[C@@H](O)[C@]3(CO)[C@H]4[C@H](O)C[C@]5(C)[C@@H](C6=CC(=O)OC6)CC[C@]5(O)[C@@H]4CC[C@]3(O)C2)[C@H](O)[C@H](O)[C@H]1O` [ouabain], the “glycolysis and lactate production” value in the data set on Na(+)-K(+)-ATPase is “decreased glycolysis and lactate production”.
In the case of `CCO[C@@H](Cc1ccc(OCCc2ccc(OS(C)(=O)=O)cc2)cc1)C(=O)O` [tesaglitazar], the “insulin sensitivity (glucose infusion rate during hyperinsulinemic-euglycemic clamp)” value in data set [8] is reported as “improved the insulin sensitivity”.
